Experimental findings from patent publication US12258424B2, “Polypeptides and compositions comprising the same” (priority 2020, dated 2025) are described below.

pIC50: −log10 of the molar value. Values joined by “and” are separate entries in the source; they are usually repeats but may differ in a detail not shown here. Identical values can stand only once. Residues, ends and D or L forms follow the SMILES beside them.

Assay [1] addresses human PD-L1/CD80 interaction (Homo sapiens, UniProt Q9NZQ7). Description: Blockade of the CD80/PD-L1 interaction. Type of assay: binding. Particulars: at 10 μM, FIG. 8a.
Assay [2] has as its target T1, recombinant human PD-L1 ECD protein (Homo sapiens, UniProt Q9NZQ7).
T1 construct: against the recombinant human PD-L1 ECD protein were evaluated using SPR; purchased G&P Biosciences FCL0784B
In words: SPR binding kinetics and affinity to immobilized human PD-L1. Particulars: read-out: Ka. As to the method: In such aspects, the equilibrium dissociate constant KD value against recombinant human PD-L1 can be determined according to an KD to PD-L1 SPR Assay. The KD to PD-L1 SPR Assay can include the use of Surface Plasmon Resonance (SPR), such as the B14500, Biosensing Instrument, and can include the following procedures. The PD-L1 protein can be diluted to 10 μg/mL with sodium acetate buffer (pH 5.0, GE Healthcare, PA) and covalently coated onto a CM5 sensor chip (CM Dextran Sensor Chip, Biosensing Instrument) using the standard Amine Coupling Kit (GE Healthcare, PA). Approximately 6500 RU of PD-L1 protein are immobilized onto the chip. A second channel is used as a reference. HBS-EP+ buffer (GE Healthcare) can be employed at a flow rate of 60 μL/min. A series of concentrations of each peptide (15, 30, 60, 125, 250, 500, 1000, 5000 and 10,000 nM) is prepared in HBS-EP+ running buffer to obtain the equilibrium dissociation constant (KD) values of the peptides. The CM5 sensor chip can be regenerated with 10 mM NaOH for 20 s. The results can be analyzed using the software of Bi data analysis software.
Evaluation of Binding Kinetics and Affinity By Surface Plasmon Resonance (SPR). Binding affinities of the PD-L1 specific peptides for human PD-L1 protein were determined by SPR (B14500, Biosensing Instrument). PD-L1 protein was diluted to 10 μg/mL with sodium acetate buffer (pH 5.0, GE Healthcare, PA) and covalently coated onto a CM5 sensor chip (CM Dextran Sensor Chip, Biosensing Instrument) using the standard Amine Coupling Kit (GE Healthcare, PA). Approximately 6500 RU of PD-L1 protein were immobilized onto the chip. A second channel was used as a reference. HBS-EP+ buffer (GE Healthcare) was employed at a flow rate of 60 μL/min. A series of concentrations of each peptide (15, 30, 60, 125, 250, 500, 1000, 5000 and 10,000 nM) were prepared in HBS-EP+ running buffer to obtain the equilibrium dissociation constant (KD) values of the peptides. The CM5 sensor chip was regenerated with 10 mM NaOH for 20 seconds. The results were analyzed using the software of Bi data analysis software. Binding affinities of the anti-PD-L1 peptides to BSA was also assessed following the procedure for human PD-L1.

A further assay addresses mPD-L1 (Mus musculus, UniProt Q9EP73). Description: Blockade of the mouse PD-1/PD-L1 interaction, mouse PD-L1 protein. Type of assay: binding. More on the design: purchased G&P Biosciences FCL3502B (PD-L1). How it is done:
Ninety-six-well plates were coated with 100 ng of PD-L1 protein (G&P Biosciences, human PD-L1 ECD, cat #FCL0784B. mouse PD-L1, cat #FCL3502B) and later blocked with 2% BSA for 2 hours at room temperature. Various concentrations of peptides were loaded into the wells and incubated for 1 hour at room temperature. […] Streptavidin-HRP (R & D systems) and chromogenic substrate were added into the wells. OD450 was then recorded and referenced to OD540.

Assay [3] relates to CD8+ T cells in CT26 tumor tissues. In words: IHC staining of CD8+ T cells in CT26 tumor tissues. It counts as in vivo, mouse. How it is done:
Immunohistochemistry (IHC) Staining. Tumor tissues were fixed in 10% formalin, embedded in paraffin, sectioned, and mounted on glass slides by Truman Medical Centers Anatomic Pathology Core (Kansas City, MO). The slides were heated in Tris buffer (pH 9.0) for 45 min to recover antigen. After deparaffinization and rehydration, the sections were stained with the anti-mouse CD8 alpha antibody (Abcam, ab209775) overnight at 4° C. The slides were incubated with a biotinylated goat anti-rabbit secondary antibody, followed by the DAB chromogen mixture. Four sections (2 male and 2 female) were imaged in each group. For each section, 3 regions were randomly selected for imaging.

Chain of mPD-L1 (Q9EP73 19-239 limits assumed): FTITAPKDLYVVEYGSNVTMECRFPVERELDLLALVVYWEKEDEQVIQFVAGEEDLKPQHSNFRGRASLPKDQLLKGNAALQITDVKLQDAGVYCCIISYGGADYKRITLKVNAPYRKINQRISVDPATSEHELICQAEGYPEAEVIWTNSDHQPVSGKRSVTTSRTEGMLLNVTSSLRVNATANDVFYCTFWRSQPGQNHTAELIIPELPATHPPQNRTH
Chain of human PD-L1/CD80 interaction (Q9NZQ7 19-238 limits assumed): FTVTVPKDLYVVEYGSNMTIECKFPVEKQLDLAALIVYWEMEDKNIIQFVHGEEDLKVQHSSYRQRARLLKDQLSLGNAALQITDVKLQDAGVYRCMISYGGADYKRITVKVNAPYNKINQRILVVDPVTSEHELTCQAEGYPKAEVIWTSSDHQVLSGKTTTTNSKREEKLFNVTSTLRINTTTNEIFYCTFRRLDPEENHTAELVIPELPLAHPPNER
T1 sequence (Q9NZQ7 19-238 limits assumed): as above

On to `CC(C)C[C@H](NC(=O)[C@H](CC(N)=O)NC(=O)[C@H](Cc1c[nH]c2ccccc12)NC(=O)[C@@H](NC(=O)[C@H](Cc1ccc(O)cc1)NC(=O)[C@H](Cc1ccc(O)cc1)NC(=O)[C@H](CO)NC(=O)[C@H](CCCNC(=N)N)NC(=O)[C@H](Cc1c[nH]cn1)NC(=O)[C@@H](N)Cc1c[nH]c2ccccc12)[C@@H](C)O)C(=O)N[C@@H](CC(N)=O)C(=O)N[C@H](C(=O)O)[C@@H](C)O` [CLP002] (H-WHRSYYTWNLNT-OH; N-terminus and C-terminus assumed), for which the “Blocking efficiency against CD80/PD-L1 interaction” value in assay [1] is listed as roughly 48%. For the same compound, the kon in assay [2] came out at 4520 M⁻¹ s⁻¹. Besides, on mPD-L1 (at 10 μM, FIG. 2f), the “Blocking efficiency against mouse PD-1/PD-L1 interaction” value was 71%. Also, on mPD-L1 (mouse PD-L1 protein), the “Blocking Efficiency (%)” value is 71% and 68%; the pIC50 is 5.72. Also, in assay [3], the “Density of CD8+ T cells in tumor tissues” value was “significantly increased” and the “Location of CD8+ T cells in the tumor” value was “penetration of CD8^+ T cells into the tumor tissue”.
